These results are taken from patent publication US4943566A, “Novel 17-aryl-steroids” (Roussel Uclafi, priority 1987, dated 1990).

Test [1] has as its system mammary Tumoral cells MCF-7. As to the kind of experiment: Anti-proliferative activity against the increase of mammary tumoral cells MCF-7 (ADN by DABA fluorimetry). It is filed as cell-based. Conditions: Homo sapiens, MCF7, 144 h; MCF-7 cells, SVF medium, 6 days, ADN content; read-out: CI50 in nM (concentration which inhibits by 50% the increase in the MCF 7 cells). As for the experimental part: The cell culture line MCF-7 was maintained in culture in SVF (1) medium at 37° C. in a humid atmosphere containing 5% CO2. The cells at subconfluence were collected by trypsination (0.05% trypsine, 0.02% EDTA) then rinsed by gentle centrifiguation. A sample of the cells in suspension was counted by the Malassez cell. To study the increase, the cells resuspended in SVF medium were innoculated at a rate of 30,000 cells per well in a multiwell plate (24 wells per 2.5 cm^2) 24 hours after the innoculation (Day 0), the test compound was added to the medium in an ethanolic solution (final ethanol concentration is 0.1%) a concentration of 10^-6 M. The control wells received the same concentration of ethanol. The mediums were totally renewed at 48 hours. At the end of the experiment (Day 6), the medium was aspirated and the cells were immediately fixed by 150 μl of methanol after a dose of ADN. The anti-proliferative activity of the products was determined by the capacity to inhibit ADN increase.
ADN is dosed by a fluorimetric method using DABA (3,5-diamino benzoic acid). 150 μl of DABA was added to each well and the plates were incubated for 45 minutes at 56° C. and then 1.5 ml of 1N hydrochloric acid was added. The fluoresence was measured with a fluorimeter (excitement length 400 nM-length of emission wave 500 nM). The amount of ADN per well was evaluated with respect to a standard scale obtained by treating under the same conditions an ADN standard of the calf thymus. The concentration in nM which inhibit by 50% the increase in the MCF 7 cells or CI50 was determined in the same manner with the results of the following Table.
The medium for culture of calf fetal serum (SVF) was prepared as follows: MEM medium (minimal essential medium) to which was added non-essential amino acids (GIBCO), peni-strepto (penicillin 100 U/ml, streptomycine 0.1 mg/ml), 0.1% fungizone, 50 ng/ml of insulin and a 10% final concentration of calf fetal serum free of endrogenic steroids.

Test [2] concerns the target T1, progesterone receptors of rabbit uterus (Oryctolagus cuniculus, UniProt P06186).
T1 construct: The first test was on the progesterone receptors of rabbit uterus; from tissue; host or cells: uterus of estradiol-treated immature rabbits, 105,000 g supernatant (cytosol)
T1 sequence (P06186 1-930): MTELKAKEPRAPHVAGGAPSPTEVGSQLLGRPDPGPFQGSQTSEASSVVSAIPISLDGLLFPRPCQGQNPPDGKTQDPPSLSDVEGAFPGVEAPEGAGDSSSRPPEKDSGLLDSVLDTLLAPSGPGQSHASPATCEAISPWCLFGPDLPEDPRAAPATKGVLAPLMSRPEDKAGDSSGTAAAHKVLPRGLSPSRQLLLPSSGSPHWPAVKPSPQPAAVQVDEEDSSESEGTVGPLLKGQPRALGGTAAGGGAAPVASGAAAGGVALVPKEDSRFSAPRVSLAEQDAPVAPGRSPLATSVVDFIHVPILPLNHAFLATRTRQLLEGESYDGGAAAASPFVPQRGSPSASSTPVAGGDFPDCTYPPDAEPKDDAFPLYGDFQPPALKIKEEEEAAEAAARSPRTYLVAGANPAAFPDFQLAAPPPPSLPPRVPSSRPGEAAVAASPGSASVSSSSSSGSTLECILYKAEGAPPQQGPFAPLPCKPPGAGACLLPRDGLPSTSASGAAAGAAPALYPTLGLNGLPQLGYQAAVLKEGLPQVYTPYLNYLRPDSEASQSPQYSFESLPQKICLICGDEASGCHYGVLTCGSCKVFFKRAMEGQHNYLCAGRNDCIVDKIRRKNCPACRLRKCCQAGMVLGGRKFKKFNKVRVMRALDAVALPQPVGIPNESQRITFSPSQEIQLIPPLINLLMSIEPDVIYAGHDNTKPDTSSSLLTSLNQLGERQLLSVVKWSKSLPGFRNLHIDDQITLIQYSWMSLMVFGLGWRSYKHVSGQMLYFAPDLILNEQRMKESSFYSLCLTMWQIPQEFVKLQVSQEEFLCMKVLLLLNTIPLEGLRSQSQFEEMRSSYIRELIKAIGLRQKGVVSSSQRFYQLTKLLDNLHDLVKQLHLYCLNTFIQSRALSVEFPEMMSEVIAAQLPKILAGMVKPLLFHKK
Kind of test: Relative binding affinity (ARL), progesterone receptors of rabbit uterus. Conditions: rabbit uterus cytosol, tritiated 17,21-dimethyl-19-nor-Δ4,9-pregnadiene-3,20-dione, cold reference hormone progesterone. How it is done:
The first test was on the progesterone receptors of rabbit uterus in which immature rabbits weighing about 1 kg received a cutaneous application of […] of estradiol and 5 days after treatment, the animals were sacrificed. The […] was removed, weighed and homogenized at 0° C. with a Potter Teflon-glass ina buffered solution. TS (Tris 10 mM, 0.25M Saccharose, HCl, pH 7.4) (1 g of tissue per 50 ml of TS). The homogenate was ultracentrifuged at 105,000 g×90 minutes at 0° C. The surnageant samples were incubated at a time at (t) 0° C. with a constant concentration (T) of tritiated product (R) which is 17,21-dimethyl-19-nor-Δ^4,9 -pregnadiene-3,20-dione in the presence of increasing concentrations from 0 to 2500×10^-9 M or cold R or cold progestenone or cold test compound. The concentration of bound tritiated R was measured for each incubate by absorption technique on dextran carbon.
(§1) The relative affinity of the bond (ARL) was calculated in the same for the receptors. One traced the following 2 curves: the percentage of bond tritiated hormone B/T as a logarithmic function of the concentration of the cold reference hormone and B/T as a logarithmic function of the concentration of the cold test compound. Using the equation [formula] B/T max.=% of bound tritiated hormone for one incubation of tritiated hormone at concentration (T)
(§2) B/T min.=% of bound tritiated hormone for one incubation of tritiated hormone at a concentration T in the presence of a great excess of cold hormone (2500×10^-9 M).
(§3) The intersections of I50 lines and the curves permit an evaluation of the hormone concentration of the cold reference (CH) and the cold test compound (CX) which inhibited by 50% the bounding of tritiated hormone to the receptor. The ARL of the test compound was determined by the equation. [formula] and the following results were obtained.

Test [3] deals with T2, glucocorticoid receptor, rat thymus (Rattus norvegicus, UniProt P06536).
T2 construct: The second test was a glucocrticoid receptor test on rat thymus; from tissue; host or cells: thymus of adrenalectomized male Sprague Dawley EOPS rats, 105,000 g supernatant (cytosol)
T2 sequence (P06536 1-795): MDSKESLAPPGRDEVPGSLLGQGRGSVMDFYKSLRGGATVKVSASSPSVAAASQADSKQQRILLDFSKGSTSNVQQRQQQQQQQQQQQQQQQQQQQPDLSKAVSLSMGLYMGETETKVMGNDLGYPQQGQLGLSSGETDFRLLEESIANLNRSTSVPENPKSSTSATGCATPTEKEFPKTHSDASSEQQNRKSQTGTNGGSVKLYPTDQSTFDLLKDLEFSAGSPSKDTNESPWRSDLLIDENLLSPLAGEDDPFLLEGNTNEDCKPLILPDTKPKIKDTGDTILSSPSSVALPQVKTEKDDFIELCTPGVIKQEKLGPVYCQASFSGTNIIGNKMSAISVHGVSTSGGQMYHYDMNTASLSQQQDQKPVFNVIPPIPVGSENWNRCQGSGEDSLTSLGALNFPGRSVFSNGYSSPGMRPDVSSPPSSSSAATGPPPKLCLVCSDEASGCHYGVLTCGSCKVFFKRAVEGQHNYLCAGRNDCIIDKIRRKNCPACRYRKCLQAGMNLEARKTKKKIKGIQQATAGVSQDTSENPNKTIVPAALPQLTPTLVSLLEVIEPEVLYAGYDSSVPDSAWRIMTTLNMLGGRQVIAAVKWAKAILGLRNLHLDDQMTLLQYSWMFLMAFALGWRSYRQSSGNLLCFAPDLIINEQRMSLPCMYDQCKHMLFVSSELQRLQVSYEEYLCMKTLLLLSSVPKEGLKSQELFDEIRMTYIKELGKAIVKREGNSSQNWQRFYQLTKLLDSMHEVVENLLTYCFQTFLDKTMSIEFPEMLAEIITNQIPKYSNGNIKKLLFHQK
As to the kind of experiment: Relative binding affinity (ARL), glucocorticoid receptor of rat thymus. The note with it: rat thymus cytosol, tritiated dexamethasone, cold reference dexamethasone. How it is done: The second test was a glucocrticoid receptor test on rat thymus in which male rats of the Sprague Dawley EOPS strain weighing 160 to 200 g were surrenalectomized. 4 to 8 days after this ablation, the animals were killed and the thymus was removed and homogenized at 0° C. in a buffered TS solution. (Tris 10 mM, 0.25M saccharose, 2 mM dithiothreitol, HCl pH 7.4) with a Potter tetrafluoroethylene-glass (1 g of tissue per 10 ml/TS). The homogenate was ultracentrifuged at 105,000 for 90 minutes at 0° C. and the surnageant samples were incubated at 0° C. for a time t with a constant concentration T of tritiated dexamethasone in the presence of increasing concentrations (0-2500×10^-9 M) or cold dexamethasone or cold test compound. The concentration B of bound tritiated dexamethasone was measured for each incubate by carbon-dextran absorption technique.
as §1, §2, §3

On to `CN(C)c1ccc([C@H]2C[C@@]3(C)[C@@H](CC[C@@]3(O)c3ccc(O)cc3)[C@@H]3CCC4=CC(=O)CCC4=C32)cc1` [6 Product A], for which the IC50 in test [1] turned out to be 50 nM. The same measure, in the same setting: for `CN(C)c1ccc([C@H]2C[C@]3(C)C(c4ccc(O)cc4)=CC[C@H]3[C@@H]3CCC4=CC(=O)CCC4=C32)cc1` [6 Product B] the value was 50 nM; for `CN(C)c1ccc(C2=CC[C@H]3[C@@H]4CCC5=CC(=O)CCC5=C4[C@@H](c4ccc(N(C)C)cc4)C[C@]23C)cc1` [Example 3, 11β,17-bis-(4-dimethylamino-phenyl)-Δ^4,9,16-estratriene-3-one], 800 nM.

With `COc1ccc(C2=CC[C@H]3[C@@H]4CCC5=CC(=O)CCC5=C4[C@@H](c4ccc(N(C)C)cc4)C[C@]23C)cc1` [Example 5, 11β-(4-dimethylamino-phenyl)-17-(4-methoxy-phenyl)-Δ^4,9,16-estratriene-3-one], the IC50 in test [1] turned out to be 1000 nM. As for `CN(C)c1ccc([C@H]2C[C@@]3(C)[C@@H](CC[C@@]3(O)c3ccccc3)[C@@H]3CCc4cc(O)ccc4[C@H]32)cc1` [Example 14, 11β-(4-dimethylamino-phenyl)-17α-phenyl-Δ^1,3,5(10) -estratriene-3,17β-diol], the “relative affinity of the bond (ARL), Progestogen, 2H” value in test [2] (incubation 2H at 0° C.) is 5. In test [2] (incubation 24H at 0° C.), the “relative affinity of the bond (ARL), Progestogen, 24H” value came to 67. Besides, the “relative affinity of the bond (ARL), Glucocorticoid, 2H” value in test [3] (incubation 2H at 0° C.) is reported as 98. Also, the “relative affinity of the bond (ARL), Glucocorticoid, 24H” value in test [3] (incubation 24H at 0° C.) is listed as 129.
